Measurements as given in the supplement of paper PMC11061612.

Tests used:
Experiment in all cases: combination Emax (second highest fraction inhibited in the dose matrix, 72 h); higher = more inhibition; extreme values may be limits of the assay
[1] = system: BC-1 (B-Cell Non-Hodgkin's Lymphoma)
Method in brief: (§1)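 Bliss excess equals the observed combination effect minus the expected value EA + EB − EA·EB, where EA and EB are the effects of each agent alone. Combination Emax is the second-highest inhibition within the matrix. Inhibition was scaled from CellTiter-Glo 2.0 luminescence, with 0 set by vehicle wells and 1 by blank wells, after 72 hours of two-drug dosing of cells plated in 1536-well plates.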

[2] = system: BT-474 (Breast Carcinoma)
Method in brief: as §1

C32 (Melanoma) = system: C32 (Melanoma)
Method in brief: as §1

[3] = system: HT-1197 (Bladder Carcinoma)
Method in brief: as §1

HT-144 (Melanoma) = system: HT-144 (Melanoma)
Method in brief: as §1

[4] = system: KNS-62 (Squamous Cell Lung Carcinoma)
Method in brief: as §1

[5] = system: L-363 (Plasma Cell Myeloma)
Method in brief: as §1

[6] = system: NCI-H1048 (Small Cell Lung Carcinoma)
Method in brief: as §1

[7] = system: NCI-H1435 (Non-Small Cell Lung Carcinoma)
Method in brief: as §1

[8] = system: NCI-H1648 (Lung Adenocarcinoma)
Method in brief: as §1

[9] = system: NCI-H1944 (Lung Adenocarcinoma)
Method in brief: as §1

[10] = system: NCI-H2009 (Lung Adenocarcinoma)
Method in brief: as §1

[11] = system: NCI-H2170 (Squamous Cell Lung Carcinoma)
Method in brief: as §1

NCI-H2452 (Mesothelioma) = system: NCI-H2452 (Mesothelioma)
Method in brief: as §1

[12] = system: RS4-11 (B-Lymphoblastic Leukemia)
Method in brief: as §1

[13] = system: SBC-5 (Small Cell Lung Carcinoma)
Method in brief: as §1

[14] = system: SNU-1 (Gastric Carcinoma)
Method in brief: as §1

[15] = system: TK (B-Cell Non-Hodgkin's Lymphoma)
Method in brief: as §1

[16] = system: NCI-H835 (Other Solid Carcinomas)
Method in brief: as §1

[17] = system: NTERA-2-cl-D1 (Other Solid Carcinomas)
Method in brief: as §1

SMILES	combination Emax [1]	combination Emax [2]	combination Emax (C32 (Melanoma))	combination Emax [3]	combination Emax (HT-144 (Melanoma))	combination Emax [4]	combination Emax [5]	combination Emax [6]	combination Emax [7]	combination Emax [8]	combination Emax [9]	combination Emax [10]	combination Emax [11]	combination Emax (NCI-H2452 (Mesothelioma))	combination Emax [12]	combination Emax [13]	combination Emax [14]	combination Emax [15]	combination Emax [16]	combination Emax [17]
CN(CCO)CC[C@H](CSc1ccccc1)Nc1ccc(S(=O)(=O)NC(=O)c2ccc(N3CCC([C@@H](O)c4ccccc4-c4ccc(Cl)cc4)CC3)cc2)cc1S(=O)(=O)C(F)(F)F [AZD4320] + C[C@@H]1COCCN1C2=NC(=NC(=C2)C3(CC3)[S@](=N)(=O)C)C4=C5C=CNC5=NC=C4 [AZD6738] (first compound max 1 µM, 7x7, partner max 10 µM)	0.901	0.259	0.787	0.443	0.765	0.581	0.853	0.981	0.852	0.872	0.993	0.543	0.829	0.704	1	0.771	0.896	1		
N#Cc1cnc(Nc2cc(NC[C@H]3CNCCO3)c(C(F)(F)F)cn2)cn1 [SRA737] + C=CCn1c(=O)c2cnc(Nc3ccc(N4CCN(C)CC4)cc3)nc2n1-c1cccc(C(C)(C)O)n1 [AZD1775] (first compound max 10 µM, partner max 1 µM)	0.988		0.581			0.53	0.937		0.267	0.621		0.82		0.722					0.546	0.483
C[C@@H](c1ccc2nccn2c1)n1nnc2ncc(-c3cnn(C)c3)nc21 [Savolitinib] + Cc1c2c(nn1C)CSCc1cc(n(C)n1)CSc1cc(c3ccccc3c1)OCCCc1c(C(=O)O)n(C)c3c-2c(Cl)ccc13 [AZD5991] (first compound max 1 µM, 7x7, partner max 1 µM)	1	0.628	0.184	0.195	0.833	0.141	0.992	0.196	0.122	0.453	0.184	0.217	0.211	0.205	0.435	0.538	0.454	0.129	0.177	0.422
Cc1cc2ncnn2cc1Nc1ncc2c(n1)n(C1CCOCC1)c(=O)n2C [AZD7648] + C[C@@H]1COCCN1C2=NC(=NC(=C2)C3(CC3)[S@](=N)(=O)C)C4=C5C=CNC5=NC=C4 [AZD6738] (first compound max 10 µM, 7x7, partner max 10 µM)	0.941	0.24	0.649	0.419	0.753	0.526	0.849	0.508	0.217	0.779	0.77	0.339	0.657	0.525	0.871	0.481	0.788	0.91	0.389	0.617
CN(CCO)CC[C@H](CSc1ccccc1)Nc1ccc(S(=O)(=O)NC(=O)c2ccc(N3CCC([C@@H](O)c4ccccc4-c4ccc(Cl)cc4)CC3)cc2)cc1S(=O)(=O)C(F)(F)F [AZD4320] + CCN(CCO)CCCOc1ccc2c(Nc3cc(CC(=O)Nc4cccc(F)c4)[nH]n3)ncnc2c1 [AZD2811] (first compound max 1 µM, 7x7, partner max 1 µM)	0.662	0.319	0.643	0.241	0.245	0.207	0.135	0.933	0.699	0.571	0.584	0.224	0.627	0.364	1	0.3	0.541	0.993		0.921
CN(CCO)CC[C@H](CSc1ccccc1)Nc1ccc(S(=O)(=O)NC(=O)c2ccc(N3CCC([C@@H](O)c4ccccc4-c4ccc(Cl)cc4)CC3)cc2)cc1S(=O)(=O)C(F)(F)F [AZD4320] + CC(=O)O[C@H]1C(=O)[C@@]2(C)[C@H]([C@H](OC(=O)c3ccccc3)[C@]3(O)C[C@H](OC(=O)[C@H](O)[C@@H](NC(=O)c4ccccc4)c4ccccc4)C(C)=C1C3(C)C)[C@]1(OC(C)=O)CO[C@@H]1C[C@@H]2O [Paclitaxel] (first compound max 1 µM, 7x7, partner max 3 µM)	1		0.864			0.957	1		0.929	0.936		0.933		0.983					1	0.754
CN(CCO)CC[C@H](CSc1ccccc1)Nc1ccc(S(=O)(=O)NC(=O)c2ccc(N3CCC([C@@H](O)c4ccccc4-c4ccc(Cl)cc4)CC3)cc2)cc1S(=O)(=O)C(F)(F)F [AZD4320] + C[C@@H](Nc1cc(F)cc(F)c1)c1cc(C(=O)N(C)C)cc2c(=O)cc(N3CCOCC3)oc12 [AZD8186] (first compound max 1 µM, 7x7, partner max 3 µM)	0.461	0.428	0.681	0.319	0.455	0.382	0.249	0.962	0.966	0.812	0.767	0.553	0.764	0.364	1	0.41	0.877	0.999		0.976
N#Cc1cnc(Nc2cc(NC[C@H]3CNCCO3)c(C(F)(F)F)cn2)cn1 [SRA737] + CCc1c2c(nc3ccc(O)cc13)-c1cc3c(c(=O)n1C2)COC(=O)[C@]3(O)CC [SN-38] (first compound max 10 µM, 7x7, partner max 0.3 µM)	0.952		0.626			0.866	0.878		0.46	0.849		0.768		0.787					0.402	0.624
N#Cc1cnc(Nc2cc(NC[C@H]3CNCCO3)c(C(F)(F)F)cn2)cn1 [SRA737] + Nc1ccn([C@@H]2O[C@H](CO)[C@@H](O)C2(F)F)c(=O)n1 [Gemcitabine] (first compound max 10 µM, 7x7, partner max 0.3 µM)	0.979		0.724			0.608	0.986		0.411	0.666		0.785		0.737					0.321	0.54
CN(CCO)CC[C@H](CSc1ccccc1)Nc1ccc(S(=O)(=O)NC(=O)c2ccc(N3CCC([C@@H](O)c4ccccc4-c4ccc(Cl)cc4)CC3)cc2)cc1S(=O)(=O)C(F)(F)F [AZD4320] + Cc1cc2ncnn2cc1Nc1ncc2c(n1)n(C1CCOCC1)c(=O)n2C [AZD7648] (first compound max 1 µM, 7x7, partner max 10 µM)	0.509	0.154	0.211	0.261	0.193	0.108	0.211	0.884	0.752	0.694	0.464	0.0699	0.674	0.386	1	0.166	0.463	0.991		0.682
Cc1cc2ncnn2cc1Nc1ncc2c(n1)n(C1CCOCC1)c(=O)n2C [AZD7648] + O=C(c1cc(Cc2n[nH]c(=O)c3ccccc23)ccc1F)N1CCN(C(=O)C2CC2)CC1 [Olaparib] (first compound max 10 µM, 7x7, partner max 10 µM)	0.385	0.117	0.0555	0.216	0.232	0.149	0.231	0.412	0.149	0.328	0.246	0.137	0.411	0.266	0.484	0.218	0.446	0.26		0.534
Cc1cc2ncnn2cc1Nc1ncc2c(n1)n(C1CCOCC1)c(=O)n2C [AZD7648] + COc1cc([C@@H]2c3cc4c(cc3[C@@H](O[C@@H]3O[C@@H]5CO[C@@H](C)O[C@H]5[C@H](O)[C@H]3O)[C@H]3COC(=O)[C@H]23)OCO4)cc(OC)c1O [Etoposide] (first compound max 10 µM, 7x7, partner max 10 µM)	0.984		0.526			0.456	0.702		0.286	0.424		0.824		0.355					0.692	0.575
C[C@@H](c1ccc2nccn2c1)n1nnc2ncc(-c3cnn(C)c3)nc21 [Savolitinib] + CN(CC[C@H](CSC1=CC=CC=C1)NC2=C(C=C(C=C2)S(=O)(=O)NC(=O)C3=CC=C(C=C3)N4CCC(CC4)[C@H](C5=CC=CC=C5C6=CC=C(C=C6)Cl)O)S(=O)(=O)C(F)(F)F)CCO [AZD4320] (first compound max 1 µM, 7x7, partner max 1 µM)		0.262	0.377	0.255	0.189			0.593			0.369		0.657		1	0.326	0.417	0.987		
